Experiments:
[1] = target: human GYS2 (Homo sapiens (Human), UniProt P54840); test: GYS2 coupled enzyme assay (PK/LDH); assay type: biochemical; details: recombinant hGYS2/GN1 protein; geometric mean of at least 2 assay runs
Text: (§1) The GYS2 coupled enzyme assay is a kinetic biochemical assay that indirectly quantifies the rate of glycogen synthesis by coupling the conversion of GYS2 substrate UDP-glucose into UDP with downstream enzymatic reactions. UDP is released from UDP-glucose as glucose monomers are linked into the growing glycogen strand by GYS2. The coupled assay then proceeds with pyruvate kinase utilizing UDP and phospho (enol) pyruvate (PEP) to form pyruvate. Lactate dehydrogenase then converts pyruvate and NADH into lactate and NAD+. Oxidation of NADH to NAD+ can be measured continuously with a plate reader by quantifying the decrease in NADH absorbance at 340 nm over time.
Compounds that inhibit the hGYS2 enzyme and, subsequently, the downstream conversion of NADH to NAD+, were tested using assay ready plates (black, clear bottom 384 well plates) in a final DMSO reaction volume of 2.5% DMSO. The Assay Buffer contained 50 mM Tris pH 7.5, 2 mM MgCl2, and 100 mM KCl. Fresh stocks of BSA at a final concentration of 0.02% and TCEP 1 mM were added before splitting buffer into hGYS2 buffer and substrate buffer. To the hGYS2 buffer, rabbit liver glycogen was added at a final concentration of 0.2% glycogen. Glucose-6-Phosphate was added at 2 mM, recombinant hGYS2/GN1 protein was added at 200 nM to the substrate buffer, phosphoenolpyruvate (PEP) was added at 2 mM, UDP-Glucose was added at 2 mM, NADH was added at 0.6 mM, and Pyruvate Kinase/Lactate Dehydrogenase was added at 20 units/mL. The reaction was initiated by mixing hGYS2 buffer and substrate buffer at a 1:1 ratio. Both buffers were plated using a liquid dispensing device with hGYS2 buffer plated first followed by the substrate buffer. Plates were spun briefly to eliminate air bubbles and are immediately read in continuous mode at an absorbance of 340 nm, for 10 time points in one-minute increments, for a total of 10 minutes. The slope from these 10 time points was normalized to the positive and negative control wells.
(§2) Unless otherwise specified, IC50 values are reported as the geometric mean of at least 2 assay runs on separate days. […] Unless otherwise specified, IC50 values are reported as the geometric mean of at least two assay runs on separate days. Each run represents the average of a technical replicate, where each compound was assayed twice in the same plate.

[2] = target: human GYS1 (Homo sapiens (Human), UniProt P13807); test: GYS1 coupled enzyme assay (PK/LDH); assay type: biochemical; details: recombinant hGYS1/GN1 protein; geometric mean of at least 2 assay runs
Text: as §1, with “GYS1” for “GYS2”, “GYS1.” for “GYS2.”
Compounds that inhibit the hGYS1 enzyme and, subsequently, the downstream conversion of NADH to NAD+, were tested using assay ready plates (black, clear bottom 384 well plates) in a final DMSO reaction volume of 2.5% DMSO. The Assay Buffer contained 50 mM Tris pH 7.5, 2 mM MgCl2, and 100 mM KCl. Fresh stocks of BSA at a final concentration of 0.02% and TCEP at 1 mM were added before splitting buffer into hGYS1 buffer and substrate buffer. To the hGYS1 buffer, rabbit liver glycogen was added at a final concentration of 0.2% glycogen. Glucose-6-Phosphate was added at 1 mM, recombinant hGYS1/GN1 protein was added at 50 nM to the substrate buffer, phosphoenolpyruvate (PEP) was added at 2 mM, UDP-Glucose was added at 0.8 mM, NADH) was added at 0.6 mM, and Pyruvate Kinase/Lactate Dehydrogenase was added at 20 units/mL. The reaction was initiated by mixing hGYS1 buffer and substrate buffer at a 1:1 ratio. Both buffers were plated using a liquid dispensing device with hGYS1 buffer plated first followed by the substrate buffer. Plates were spun briefly to eliminate air bubbles and are immediately read in continuous mode at an absorbance of 340 nm, for 10 time points in one-minute increments, for a total of 10 minutes. The slope from these 10 time points was normalized to the positive and negative control wells.
Unless otherwise specified, IC50 values are reported as the geometric mean of at least 2 assay runs on separate days. Each run represents the average of a technical replicate, where each compound was assayed twice in the same plate.

[3] = target: hGYS1 enzyme, glycogen synthesis in HeLa cells (Homo sapiens (Human), UniProt P13807); test: GYS1 cell based assay (glycogen synthesis in HeLa cells, Glucose-glo); details: starved HeLa cells, 24 h incubation; geometric mean of at least 2 assay runs; read-out: Cellular IC50
Text: The GYS1 cell based assay is a bioluminescent assay that quantifies the glucose resulting from glycogen digestion; the quantified glucose is an indirect measure of GYS1 glycogen synthesis. Newly synthesized glycogen is digested using Glucoamylase; the resulting glucose is quantified by using the Glucose-glo assay kit from Promega. Glucose-glo works by coupling glucose oxidation and NADH production with a bioluminescent system that is activated with NADH. Glucose is oxidized by Glucose dehydrogenase and the reaction reduces NAD+ to NADH; NADH activates Reductase which reduces a pro-luciferin Reductase Substrate to luciferin. Luciferin is detected in a luciferase reaction using Ultra-Glo rLuciferase and ATP, and the luminesce produced is proportional to the glucose in the sample. The luminescence is measured as a single point read in a plate reader.
Compounds that inhibit the hGYS1 enzyme and, subsequently, the glycogen synthesis in cells, were tested using assay ready plates (white, clear bottom 384 well plates) in a final DMSO reaction volume of 1% DMSO. Compounds in the assay ready plates were mixed with media with no additives, except for 20 mM glucose prior to cell addition. HeLa cells were starved in media with no additives, except for 1× Glutamax for 24 h. Starved HeLa cells were plated, in a 1:1 ratio to the media in the assay ready plate and incubated for 24 h at 37° C. and 5% CO2. Cells were washed in 1×PBS buffer and lysed in lysis buffer containing 50% 1×PBS and 25% 0.3 N HCl of the final volume in the well or reaction volume; cells were incubated with lysis buffer for 10 minutes and quenched with the remaining 25% of the reaction volume that consisted of 450 mM Tris pH 8.0. Lysates were mixed in a 1:1 ratio with Glucoamylase in 100 mM Sodium Acetate buffer, pH 5.3; the mixture was incubated for 1 h at 37° C. The digested lysate was mixed in a 1:1 ratio with Glucose-glo detection mixture as per vendor recommendations (Luciferase detection buffer, Reductase, Reductase substrate, Glucose dehydrogenase, and NAD) in read-out plates (solid white 384-well plates) and incubated for 1 h at RT. The plates were read using a plate reader with luminescence capabilities. Each compound concentration Relative Luminescence Unit (RLU) was averaged and normalized to the average RLU of the positive and negative controls to obtain a percentage inhibition. The normalized data vs. concentration was plotted; to determine the half-maximal concentration (IC50), the Levenberg-Marquardt algorithm was used to fit a Hill equation to the dose response data.
as §2

Chain of human GYS2 (P54840 whole entry): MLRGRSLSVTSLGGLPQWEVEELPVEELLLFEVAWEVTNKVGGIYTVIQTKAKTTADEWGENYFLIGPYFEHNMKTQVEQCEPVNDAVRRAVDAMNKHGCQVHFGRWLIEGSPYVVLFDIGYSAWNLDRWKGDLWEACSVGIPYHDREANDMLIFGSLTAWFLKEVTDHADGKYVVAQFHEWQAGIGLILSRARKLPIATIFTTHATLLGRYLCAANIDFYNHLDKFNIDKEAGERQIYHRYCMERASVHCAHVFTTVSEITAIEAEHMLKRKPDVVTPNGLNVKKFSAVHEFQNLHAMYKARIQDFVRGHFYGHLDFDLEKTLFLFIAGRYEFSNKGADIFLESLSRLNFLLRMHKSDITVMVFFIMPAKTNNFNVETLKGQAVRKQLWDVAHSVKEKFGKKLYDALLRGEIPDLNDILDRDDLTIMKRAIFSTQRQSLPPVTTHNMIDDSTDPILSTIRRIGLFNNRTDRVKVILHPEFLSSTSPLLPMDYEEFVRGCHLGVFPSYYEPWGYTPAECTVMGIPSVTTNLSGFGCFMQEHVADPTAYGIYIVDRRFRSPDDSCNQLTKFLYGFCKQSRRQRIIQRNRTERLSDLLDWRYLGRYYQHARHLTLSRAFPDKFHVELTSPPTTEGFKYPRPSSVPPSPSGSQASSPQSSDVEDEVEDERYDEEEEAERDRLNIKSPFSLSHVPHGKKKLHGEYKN
Chain of human GYS2 (P46976 whole entry partner): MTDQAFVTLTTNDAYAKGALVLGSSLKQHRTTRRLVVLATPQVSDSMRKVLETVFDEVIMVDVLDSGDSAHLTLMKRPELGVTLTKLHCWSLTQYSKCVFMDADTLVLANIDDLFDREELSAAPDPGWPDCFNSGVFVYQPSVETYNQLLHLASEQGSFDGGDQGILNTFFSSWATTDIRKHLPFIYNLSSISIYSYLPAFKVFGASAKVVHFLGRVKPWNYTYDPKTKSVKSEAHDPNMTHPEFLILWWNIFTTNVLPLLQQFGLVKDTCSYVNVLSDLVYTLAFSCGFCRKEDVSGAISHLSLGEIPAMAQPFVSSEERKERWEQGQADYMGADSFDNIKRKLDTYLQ
Chain of hGYS1 enzyme, glycogen synthesis in HeLa cells (P13807 whole entry): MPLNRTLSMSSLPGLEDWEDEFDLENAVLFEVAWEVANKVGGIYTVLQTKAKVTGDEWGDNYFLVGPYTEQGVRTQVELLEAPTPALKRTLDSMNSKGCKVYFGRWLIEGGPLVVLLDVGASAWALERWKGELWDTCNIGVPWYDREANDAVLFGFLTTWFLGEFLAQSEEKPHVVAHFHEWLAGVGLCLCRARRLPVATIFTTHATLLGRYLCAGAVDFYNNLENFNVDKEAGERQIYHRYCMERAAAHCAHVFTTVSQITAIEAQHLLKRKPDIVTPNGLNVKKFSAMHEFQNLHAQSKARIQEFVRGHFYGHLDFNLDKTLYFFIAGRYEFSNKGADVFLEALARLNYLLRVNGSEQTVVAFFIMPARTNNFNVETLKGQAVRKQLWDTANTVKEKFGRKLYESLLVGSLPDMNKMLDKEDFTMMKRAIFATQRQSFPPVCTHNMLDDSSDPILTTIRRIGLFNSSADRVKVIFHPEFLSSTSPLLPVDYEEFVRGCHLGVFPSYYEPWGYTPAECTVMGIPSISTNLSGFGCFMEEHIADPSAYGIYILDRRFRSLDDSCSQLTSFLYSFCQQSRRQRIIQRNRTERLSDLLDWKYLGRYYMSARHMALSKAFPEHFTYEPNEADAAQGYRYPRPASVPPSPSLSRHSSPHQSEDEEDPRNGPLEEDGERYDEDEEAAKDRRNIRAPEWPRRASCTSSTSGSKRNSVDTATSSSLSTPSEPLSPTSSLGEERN
Chain of human GYS1 (P13807 whole entry): as above
Chain of human GYS1 (P46976 whole entry partner): as the sequence (P46976 whole entry partner) above

IC50 [1]	IC50 [2]	IC50 [3]	Structure (SMILES)
15.5 µM	0.795 µM	21.6 µM	Cc1ccccc1[C@H](NC(=O)[C@@H]1CCC[C@@H]1C(=O)O)c1ccc(C2CC2)cc1 [Compound 26, (1S,2R)-2-(((R)-(4-cyclopropylphenyl)(o-tolyl)methyl)carbamoyl)cyclopentane-1-carboxylic acid]
> 100 µM	1.09 µM	12.3 µM	CC(C)c1ccc([C@@H](NC(=O)[C@@H]2CCC[C@@H]2C(=O)O)c2cccc3c2NC(=O)CC3)cc1 [Compound 31, (1S,2R)-2-(((R)-(4-isopropylphenyl)(2-oxo-1,2,3,4-tetrahydroquinolin-8-yl)methyl)carbamoyl)cyclopentane-1-carboxylic acid]
66.4 µM	3.4 µM	41.3 µM	COc1ccccc1[C@H](NC(=O)[C@@H]1CCC[C@@H]1C(=O)O)c1ccc(C(C)C)cc1 [Compound 39, (1S,2R)-2-(((R)-(4-isopropylphenyl)(2-methoxyphenyl)methyl)carbamoyl)cyclopentane-1-carboxylic acid]
98 µM	0.364 µM	6.6 µM	CC(C)c1ccc([C@@H](NC(=O)[C@@H]2CCC[C@@H]2C(=O)O)c2cccs2)cc1 [Compound 45, (1S,2R)-2-(((R)-(4-isopropylphenyl)(thiophen-2-yl)methyl)carbamoyl)cyclopentane-1-carboxylic acid]

The remaining lines, values behind:

Structure (SMILES)	IC50 [1]	IC50 [2]	IC50 [3]
Cc1ccccc1[C@H](NC(=O)[C@@H]1CCC[C@@H]1C(=O)O)c1ccc(C(C)C)cn1 [Compound 22, (1S,2R)-2-(((S)-(5-isopropylpyridin-2-yl)(o-tolyl)methyl)carbamoyl)cyclopentane-1-carboxylic acid]	66.7 µM	1.27 µM	13.9 µM
Cc1ccccc1[C@H](NC(=O)[C@@H]1CCC[C@@H]1C(=O)O)c1ccc(C(C)C)c(F)c1 [Compound 23, (1S,2R)-2-(((R)-(3-fluoro-4-isopropylphenyl)(o-tolyl)methyl)carbamoyl)cyclopentane-1-carboxylic acid]	8.48 µM	0.166 µM	5.36 µM
CC(C)c1ccc([C@@H](NC(=O)[C@@H]2CCC[C@@H]2C(=O)O)c2ccn[nH]2)cc1F [Compound 27, (1S,2R)-2-(((R)-(3-fluoro-4-isopropylphenyl)(1H-pyrazol-5-yl)methyl)carbamoyl)cyclopentane-1-carboxylic acid]	> 100 µM	1.48 µM	46.3 µM
CC(C)c1ccc([C@@H](NC(=O)[C@@H]2CCC[C@@H]2C(=O)O)c2ccccc2)cc1F [Compound 37, (1S,2R)-2-(((S)-(3-fluoro-4-isopropylphenyl)(phenyl)methyl)carbamoyl)cyclopentane-1-carboxylic acid]	72.8 µM	0.236 µM	3.69 µM

From patent US20260021085A1, “CYCLOALKYL CARBOXYLIC ACID DERIVATIVES AS INHIBITORS OF GLYCOGEN SYNTHASE 1 (GYS1) AND METHODS OF USE THEREOF” (Maze Therapeutics, Inc., priority 2022, published 2026)
